pEC50: −log10 of the molar value. Numbered stars: 1 amine (or outer) side, 2 acyl side, 3 side chain; on linkers, the order of the positions; unused ones are H or OH. Bridge positions count the residues as written; N and C are the ends. Square brackets hold non-standard residues; d marks the D form. Peptide text beside a SMILES is read from it. * marks the point of attachment. C20 diacid = O=C(O)CCCCCCCCCCCCCCCCCCC(=O)*; γGlu = O=C(O)[C@H](CCC(=O)[*:2])N[*:1]; Hyp = O=C(O)[C@@H]1C[C@@H](O)CN1; NMeI = CC[C@H](C)[C@H](NC)C(=O)O; Aad = N[C@@H](CCCC(=O)O)C(=O)O; Sar = CNCC(=O)O
Key:
[1] = cited from earlier work
[2] = Assessment of chemical stability in 40 mM buffers at 40° C. (RP-HPLC); format: physicochemical; conditions: 1 mg/mL; for % degradation after 72 h at 40° C. pH4 acetate: acetate buffer pH 4, 72 h; for % degradation after 72 h at 40° C. pH6 phosphate: phosphate buffer pH 6, 72 h; for % degradation after 72 h at 40° C. pH7 phosphate: phosphate buffer pH 7, 72 h; for % degradation after 14 days at 40° C. pH7 phosphate: phosphate buffer pH 7, 14 days
How it was run: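 Peptides at 1 mg/mL in 40 mM acetate pH 4 or phosphate pH 6 and 7 were held at 40° C for 3 and 14 days. Main-peak area-% by C8 RP-HPLC, UV 220 nm; % degradation = change in main-peak area-% versus t=0.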

[3] = Assessment of physical stability: fibril formation by Thioflavin T fluorescence; format: physicochemical; design: key: FND = fibrillation not detected; FD = fibrillation detected; conditions: 1 mg/mL peptide; for Fibrillation (in buffer) pH4 acetate: 50 mM acetate buffer pH 4.0, 96 hours at 40° C.; for Fibrillation (in buffer) pH7 histidine: 50 mM histidine buffer pH 7.0, 96 hours at 40° C.; for Fibrillation (in buffer) pH7 phosphate: 50 mM phosphate buffer pH 7.0, 96 hours at 40° C.
How it was run: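 Test peptide at 1 mg/mL with 40 μM ThT in 50 mM phosphate pH 7.0, 50 mM histidine pH 7.0, or 50 mM acetate pH 4.0, in triplicate. Fluorescence read every 10 min after 300 s agitation for 96 hours at 40° C; significant intensity rise scored as fibrillation detected (FD).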

[4] = target: T1, recombinant human calcitonin receptor (hCT-R) (Homo sapiens, UniProt P30988); assay: hCT-R cAMP assay (AlphaScreen) in 1321N1 cells; format: cell-based; conditions: cAMP formation, 45 min stimulation
T1 construct: host or cells: human astrocytoma cell line 1321N1
T1 sequence (P30988 25-474): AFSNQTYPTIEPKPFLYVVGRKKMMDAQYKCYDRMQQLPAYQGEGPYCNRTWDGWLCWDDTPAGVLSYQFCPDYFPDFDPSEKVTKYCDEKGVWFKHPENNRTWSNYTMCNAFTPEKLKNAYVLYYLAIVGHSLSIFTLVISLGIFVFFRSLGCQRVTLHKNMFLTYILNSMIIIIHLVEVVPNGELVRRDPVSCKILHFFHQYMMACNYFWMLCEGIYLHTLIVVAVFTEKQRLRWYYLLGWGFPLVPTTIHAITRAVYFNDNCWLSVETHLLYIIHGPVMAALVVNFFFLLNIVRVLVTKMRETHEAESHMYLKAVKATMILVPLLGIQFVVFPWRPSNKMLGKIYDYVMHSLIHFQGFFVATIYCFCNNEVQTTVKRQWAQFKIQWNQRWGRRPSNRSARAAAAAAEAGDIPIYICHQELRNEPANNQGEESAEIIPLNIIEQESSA
How it was run: (§1)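 1321N1 astrocytoma cells expressing recombinant human calcitonin receptor alone or with RAMP3 (AMY3) stimulated 45 min at room temperature with peptide in IBMX-containing buffer. cAMP quantified by AlphaScreen after 1 h bead incubation; EC50 fitted from at least 7 concentrations.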

[5] = Pharmacokinetic (PK) profiling in rats; conditions: male, Sprague Dawley, plasma; rat, single sc bolus 30 nmol/kg; read-out: in vivo half life t1/2 (plasma terminal elimination half-life) (converted)
Method: Sprague Dawley male rats were given a single subcutaneous (sc) bolus of each peptide to be tested, as specified below.
30 nmol/kg doses of compound were administered. Blood samples were drawn from the tail vein prior to dosing and at 24 and 96 hours after dosing. The rats were euthanized immediately after the last blood sampling by concussion and cervical dislocation.
The dosing vehicle used for each test peptide was a mannitol-containing histidine buffer (pH 7.0). Plasma samples were analyzed after precipitation with ethanol by liquid chromatography mass spectrometry (LC-MS/MS). Mean plasma concentrations were used for calculation of the pharmacokinetic parameters.
Plasma terminal elimination half-life (t1/2) was determined as In(2)/λz, where λz is the magnitude of the slope of the log linear regression of the log concentration versus time profile during the terminal phase.

[6] = Effect on acute food intake and body weight in normal Sprague Dawley rats; format: in vivo, Sprague Dawley (SD) rats; conditions: Dose: 30 nmol/kg sc, vehicle-corrected
[7] = target: T2, recombinant human amylin 3 receptor (hAMYR3) (Homo sapiens, UniProt O60896+P30988); assay: hAMYR3 cAMP assay (AlphaScreen) in 1321N1 cells; format: cell-based; conditions: cAMP formation, 45 min stimulation
T2 construct: host or cells: human astrocytoma cell line 1321N1
T2 sequence (P30988 25-474): T1 sequence (P30988 25-474)
T2 sequence (O60896 24-148 partner): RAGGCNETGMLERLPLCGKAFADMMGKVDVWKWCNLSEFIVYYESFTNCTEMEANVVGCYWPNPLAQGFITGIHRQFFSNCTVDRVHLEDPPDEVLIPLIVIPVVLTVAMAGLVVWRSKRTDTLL
How it was run: as §1

[8] = WO99/34764; cited from earlier work

Compound	effect on body weight in human trials [1]	% degradation after 72 h at 40° C. pH4 acetate [2]	% degradation after 72 h at 40° C. pH6 phosphate [2]	% degradation after 72 h at 40° C. pH7 phosphate [2]	% degradation after 14 days at 40° C. pH7 phosphate [2]	Fibrillation (in buffer) pH4 acetate [3]	Fibrillation (in buffer) pH7 histidine [3]	Fibrillation (in buffer) pH7 phosphate [3]	pEC50 [4]	half-life [5]	Body weight reduction in % at 48 h [6]	Food intake reduction in % at 48 h [6]	pEC50 [7]	potency compared with other amylin analogues and human amylin [8]	% degradation after 14 days at 40° C. pH4 acetate ([2]; acetate buffer pH 4, 14 days)	% degradation after 14 days at 40° C. pH6 phosphate ([2]; phosphate buffer pH 6, 14 days)
CC[C@H](C)[C@H](NC(=O)[C@@H]1CCCN1C(=O)CNC(=O)[C@H](Cc1ccccc1)NC(=O)[C@H](CC(N)=O)NC(=O)[C@H](CC(N)=O)NC(=O)[C@H](CO)NC(=O)[C@H](CO)NC(=O)[C@H](Cc1c[nH]cn1)NC(=O)[C@@H](NC(=O)[C@H](CC(C)C)NC(=O)[C@H](Cc1ccccc1)NC(=O)[C@H](CC(N)=O)NC(=O)[C@H](C)NC(=O)[C@H](CC(C)C)NC(=O)[C@H](CCCNC(=N)N)NC(=O)[C@H](CCC(N)=O)NC(=O)[C@@H](NC(=O)[C@H](C)NC(=O)[C@@H]1CSSC[C@H](NC(=O)[C@@H](N)CCCCN)C(=O)N[C@@H](CC(N)=O)C(=O)N[C@@H]([C@@H](C)O)C(=O)N[C@@H](C)C(=O)N[C@@H]([C@@H](C)O)C(=O)N1)[C@@H](C)O)C(C)C)C(=O)N[C@@H](CC(C)C)C(=O)N1CCC[C@H]1C(=O)N1CCC[C@H]1C(=O)N[C@H](C(=O)N[C@@H](CC(N)=O)C(=O)N[C@H](C(=O)NCC(=O)N[C@@H](CO)C(=O)N[C@@H](CC(N)=O)C(=O)N[C@H](C(=O)N[C@@H](Cc1ccc(O)cc1)C(N)=O)[C@@H](C)O)C(C)C)[C@@H](C)O [pramlintide]	reduce body weight or reduce weight gain															
CC[C@H](C)[C@@H](C(=O)N[C@@H](CC(C)C)C(=O)N[C@@H](CO)C(=O)N[C@@H](CO)C(=O)N[C@H](C(=O)N[C@@H](CCC(=O)O)C(=O)N[C@H](C(=O)NCC(=O)N[C@@H](CO)C(=O)N[C@@H](CC(N)=O)C(=O)N[C@H](C(=O)N1C[C@H](O)C[C@H]1C(N)=O)[C@@H](C)O)C(C)C)[C@@H](C)O)N(C)C(=O)[C@H](C)NC(=O)CN(C)C(=O)[C@H](Cc1ccccc1)NC(=O)[C@@H](NC(=O)[C@@H](NC(=O)[C@H](CCCNC(=N)N)NC(=O)[C@H](CCC(N)=O)NC(=O)[C@H](CC(C)C)NC(=O)[C@H](Cc1ccccc1)NC(=O)[C@H](CCCC(=O)O)NC(=O)[C@H](C)NC(=O)[C@H](CC(C)C)NC(=O)[C@H](CCCNC(=N)N)NC(=O)[C@H](CCC(=O)O)NC(=O)[C@@H](NC(=O)[C@H](C)NC(=O)[C@@H]1CCCCNC(=O)C[C@H](NC(=O)[C@H](CCCNC(=N)N)NC(=O)CC[C@H](NC(=O)CCCCCCCCCCCCCCCCCCC(=O)O)C(=O)O)C(=O)NCC(=O)N[C@@H]([C@@H](C)O)C(=O)N[C@@H](C)C(=O)N[C@@H]([C@@H](C)O)C(=O)N1)[C@@H](C)O)[C@@H](C)O)[C@@H](C)O [Compound 38, [19CD]-isoGlu-RD()GTATK()ATERLA-Aad-FLQRTTF-Gly(Me)-A-Ile(Me)-LSSTEVGSNT-Hyp-NH2] ({C20 diacid-γGlu}-RDGTATKATERLA[Aad]FLQRTTF[Sar]A[NMeI]LSSTEVGSNT[Hyp]-NH2; lactam 2-7)		<1%	<1%	<1%	<1%	FD	FND	FND	9.94	1910 min	8.2%	43%	10.22			
^2,7cyclo-[2Asp,7Lys]-h-amylin														considerably lower potency		
CC[C@H](C)[C@@H](C(=O)N[C@@H](CC(C)C)C(=O)N[C@@H](CO)C(=O)N[C@@H](CO)C(=O)N[C@H](C(=O)N[C@@H](CCC(=O)O)C(=O)N[C@H](C(=O)NCC(=O)N[C@@H](CO)C(=O)N[C@@H](CC(N)=O)C(=O)N[C@H](C(=O)N1C[C@H](O)C[C@H]1C(N)=O)[C@@H](C)O)C(C)C)[C@@H](C)O)N(C)C(=O)[C@H](C)NC(=O)CN(C)C(=O)[C@H](Cc1ccccc1)NC(=O)[C@H](CO)NC(=O)[C@H](CO)NC(=O)[C@H](CCCNC(=N)N)NC(=O)[C@H](CCC(N)=O)NC(=O)[C@H](CC(C)C)NC(=O)[C@H](Cc1ccccc1)NC(=O)[C@H](CCCC(=O)O)NC(=O)[C@H](C)NC(=O)[C@H](CC(C)C)NC(=O)[C@H](CCCNC(=N)N)NC(=O)[C@H](CCC(=O)O)NC(=O)[C@@H](NC(=O)[C@H](C)NC(=O)[C@@H]1CCCCNC(=O)C[C@H](NC(=O)[C@H](CCCNC(=N)N)NC(=O)CC[C@H](NC(=O)CCCCCCCCCCCCCCCCCCC(=O)O)C(=O)O)C(=O)NCC(=O)N[C@@H]([C@@H](C)O)C(=O)N[C@@H](C)C(=O)N[C@@H]([C@@H](C)O)C(=O)N1)[C@@H](C)O [Compound 35, [19CD]-isoGlu-RD()GTATK()ATERLA-Aad-FLQRSSF-Gly(Me)-A-Ile(Me)-LSSTEVGSNT-Hyp-NH2] ({C20 diacid-γGlu}-RDGTATKATERLA[Aad]FLQRSSF[Sar]A[NMeI]LSSTEVGSNT[Hyp]-NH2; lactam 2-7)		<1%	<1%	1.4%	<1%	FND	FND	FND	10.18	2170 min	12%	72%	10.55		2%	<1%
